# Data taken from patent US20120122212A1, “TGF-BETA PATHWAY INHIBITORS FOR ENHANCEMENT OF CELLULAR REPROGRAMMING OF HUMAN CELLS” (priority 2009, published 2012).
# Read-outs that look alike come from different tables or passages of the source.
# B1: Wnt3a: Wnt cell signaling molecule (protein, UniProt P56704 19-352, looked up)
# Protein Wnt-3a: SYPIWWSLAVGPQYSSLGSQPILCASIPGLVPKQLRFCRNYVEIMPSVAEGIKIGIQECQHQFRGRRWNCTTVHDSLAIFGPVLDKATRESAFVHAIASAGVAFAVTRSCAEGTAAICGCSSRHQGSPGKGWKWGGCSEDIEFGGMVSREFADARENRPDARSAMNRHNNEAGRQAIASHMHLKCKCHGLSGSCEVKTCWWSQPDFRAIGDFLKDKYDSASEMVVEKHRESRGWVETLRPRYTYFKVPTERDLVYYEASPNFCEPNPETGSFGTRDRTCNVSSHGIDGCDLLCCGRGHNARAERRREKCRCVFHWCCYVSCQECTRVYDVHTCK
# Assays:
# [1] = tested on: p21; experiment: p21 gene expression (Taqman, normalized to GAPDH) in neonatal human dermal fibroblasts; format: cell-based; details: after 6 days
# Procedure: (§1) Neonatal human dermal fibroblasts (fibroblast cell line NHDF-3955-Neo from Lonza) are cultured under standard cell culture conditions using hFib media (DMEM, 20% Earl's 199 media, 10% FBS, Glutamax, beta-mercaptoethanol (bME)). Approximately 12,000 cells per well are plated on a 12-well plate. 24 hrs after plating, cells are daily fed with media containing 4, 10 or 20 μM DIM (Sigma) or 1% DMSO. After 6 days, cells are collected and RNA is extracted using a Qiagen RNeasy kit. Gene expression is analyzed using specific Taqman primer-probe sets for Klf4, p21 and GAPDH on an ABI 7900HT. Gene expression of cells previously infected with retroviruses encoding Sox2, Oct4, Klf4, and c-Myc (“KSOM”) is also analyzed and is used for positive control purposes. The expression of Klf4 and p21 is normalized to the expression of housekeeping gene GAPDH.
# [2] = tested on: Klf4; experiment: Klf4 gene expression (Taqman, normalized to GAPDH) in neonatal human dermal fibroblasts; format: cell-based; details: after 6 days
# Procedure: as §1
# [3] = tested on: Sox2; experiment: Sox2 gene expression (Taqman, normalized to GAPDH) in neonatal human dermal fibroblasts; format: cell-based; details: for increase in Sox2 expression compared to cells that receive no drug treatment: daily feeding
# Procedure: (§2) Neonatal human dermal fibroblasts (fibroblast cell line NHDF-3955-Neo from Lonza) are cultured under standard cell culture conditions using hFib media (DMEM, 20% Earl's 199 media, 10% FBS, Glutamax, beta-mercaptoethanol (bME)). Approximately 12,000 cells per well are plated on a 12-well plate. 24 hrs after plating, cells are daily fed with media containing 4, 10, 20, 50 or 100 μM GPI-1046 (ACC Corporation) or 1% DMSO. After 6 days, cells are collected and RNA is extracted using a Qiagen RNeasy kit. Gene expression is analyzed using specific Taqman primer-probe sets for Sox2, Oct4, and GAPDH on an ABI 7900HT. Gene expression of cells previously infected with retroviruses encoding Sox2, Oct4, Klf4, and c-Myc (“KSOM”) is also analyzed and is used for positive control purposes. The expression of Sox2 and Oct4 is normalized to the expression of housekeeping gene GAPDH. […] As also indicated in FIG. 1, cells that are treated with 50 μM or 100 μM GPI-1046 express about 5.2-fold and 5.7-fold, respectively, increases in Oct4 when compared to cells that receive no agent treatment and approximately a 3.5- and 3.8-fold increase, respectively, in relative expression of Oct4 when compared to cells that are treated with DMSO.
# Neonatal human dermal fibroblasts (fibroblast cell line NHDF-3955-Neo from Lonza) are cultured under standard cell culture conditions using hFib media (DMEM, 20% Earl's 199 media, 10% FBS, Glutamax, beta-mercaptoethanol (bME)). Approximately 12,000 cells per well are plated on a 12-well plate. 24 hrs after plating, cells are daily fed with media containing 2, 5, 25 or 50 μM 616 453 (Calbiochem) or 1% DMSO. After 6 days, cells are collected and RNA is extracted using a Qiagen RNeasy kit. Gene expression is analyzed using specific Taqman primer-probe sets for Sox2 and GAPDH on an ABI 7900HT. Gene expression of cells previously infected with retroviruses encoding Sox2, Oct4, Klf4, and c-Myc (“KSOM”) is also analyzed and is used for positive control purposes. The expression of Sox2 is normalized to the expression of housekeeping gene GAPDH.
# (§3) Neonatal human dermal fibroblasts (fibroblast cell line NHDF-3955-Neo from Lonza) are cultured under standard cell culture conditions using hFib media (DMEM, 20% Earl's 199 media, 10% FBS, Glutamax, beta-mercaptoethanol (bME)). Approximately 6,000 cells per well are plated on a 24-well plate. 48 hrs after plating, cells are daily fed with media containing 1 or 100 μM GPI-1046 with or without 0.5 μM Decitabine. On day 7 of treatment, cells are collected and RNA is extracted using a Qiagen RNeasy kit. Gene expression is analyzed using specific Taqman primer-probe sets for Sox2, Oct4 and GAPDH on an ABI 7900HT. The expression of Sox2 and Oct4 is normalized to the expression of housekeeping gene GAPDH.
# as §3, with “LY 364947 (Tocris); for 50 μM 616 453 (Calbiochem); 1” for “GPI-1046 with”, “100 μM of A-83-01 (Tocris) or 1 or 100 μM SB 431542 (Tocris). Each treatment was performed in the presence or absence of” for “without”, “using” for “using a”, “Sox2” for “Sox2, Oct4”, “Sox2” for “Sox2 and Oct4”, “GAPDH. […] The morphology of the cells after treatment is depicted in FIG. 5.” for “GAPDH.”
# Neonatal human dermal fibroblasts (fibroblast cell line NHDF-3955-Neo from Lonza) are cultured under standard cell culture conditions using hES medium, as described herein. Cells are treated with 0 μM, 2 μM, 10 μM, 50 μM, or 100 μM GPI-1046. […]
# [4] = tested on: Oct4; experiment: Oct4 gene expression (Taqman, normalized to GAPDH) in neonatal human dermal fibroblasts; format: cell-based; details: for increase in Oct4 compared to cells that receive no agent treatment / increase in relative expression of Oct4 compared to cells treated with DMSO: after 6 days, hFib media
# Procedure: as §2, §3
# Neonatal human dermal fibroblasts (fibroblast cell line NHDF-3955-Neo from Lonza) are cultured under standard cell culture conditions using hES medium, as described herein. Cells are treated with 0 μM, 2 μM, 10 μM, 50 μM, or 100 μM GPI-1046. On day 5 or day 8 after treatment, cells are collected and RNA is extracted using a Qiagen RNeasy kit. Gene expression is analyzed using specific Taqman primer-probe sets for Sox2, Oct4 and GAPDH on an ABI 7900HT. Gene expression of cells previously infected with retroviruses encoding Sox2, Oct4, Klf4, and c-Myc (“KSOM”) is also analyzed and is used for positive control purposes. The expression of Sox2 and Oct4 is normalized to the expression of housekeeping gene GAPDH. […] The morphology of cells infected with viruses encoding KSOM is depicted in FIG. 8.
# [5] = tested on: human BJ-5Tα fibroblasts; details: Day 8
# Procedure: In the case of compound 616452, cells KSO and KSOM-infected BJ-5Tα fibroblasts were fixed by 4% paraformaldehyde at Day 8, and then incubated with 50 μl 1-Step NBT/BCIP for 20 minutes for AP staining AP staining-positive colonies were counted (see FIGS. 15-16).
# [6] = tested on: human BJ fibroblasts; details: BJ fibroblasts (lack TERT), Day 8, reduced sensitivity compared to BJ-5Tα
# Excerpt: In order to determine the effect of TGFβR inhibitor compounds on reprogramming we combined low multiplicity of infection (MOI) of retroviruses for three induction factor (Klf4, Sox2, and Oct ¾ or “KSO”) and four induction factor (Klf4, Sox2, Oct3/4, c-Myc or “KSOM”) reprogramming with various TGFβR inhibitors in human BJ-5Tα fibroblasts or BJ fibroblasts. […] By utilizing a low MOI infection protocol, we increased the sensitivity of the assay to detect the ability of various TGFβR inhibitor compounds to enhance the efficiency of reprogramming by three or four induction factor combinations.
# Adherent BJ or BJ-5Tα (TERT-immortalized) fibroblast cells were infected “in bulk” with retroviruses for expression of the three induction factors (also referred to as “reprogramming factors”) KLF4, OCT3/4 and SOX2 (“KSO”), or the cells were infected with retroviruses for expression of KLF4, OCT4, SOX2 and c-MYC (“KSOM”), in each case at a multiplicity of infection (MOI) of 1, and transferred into 96-well plates in a serum-free human embryonic stem cell (hES) medium. […] AP activity was determined quantitatively using a chemiluminescent 1,2-dioxetane-phosphate substrate, which upon dephosphorylation by AP forms a metastable phenolate anion intermediate that decomposes emitting light quantified by a microplate luminometer.
# [7] = tested on: mouse fibroblasts; details: cited from earlier work
# [8] = 100 μM with 0.5 μM Decitabine, day 7 of treatment
# [9] = 100 μM, no Decitabine, day 7 of treatment
molecule,measurement,setting,value
c1ccc2c(Cc3c[nH]c4ccccc34)c[nH]c2c1 [DIM],increase in p21 expression relative to cells treated with no agent,[1]; 4 μM,approximately 2 fold
same,increase in p21 expression compared to cells treated with no agent,[1]; 10 μM,approximately 2 fold
same,increase in Klf4 expression relative to cells treated with no agent,[2]; 4 μM,approximately 2 fold
same,increase in Klf4 expression compared to cells treated with no agent,[2]; 10 μM,~3.2 fold
NC(=O)c1ccc(-c2nc(-c3ccc4c(c3)OCO4)c(-c3ccccn3)[nH]2)cc1 [SB 431542],relative Sox2 expression,"[3]; 100 μM plus 0.5 μM Decitabine, day 7 of treatment",an increase in relative Sox2 expression
CCC(C)(C)C(=O)C(=O)N1CCCC1C(=O)OCCCc1cccnc1 (centres unmarked) [GPI-1046],"levels of Sox2, Oct3/4 or both versus cells treated with no agent","[3]; 4 μM, 10 μM, or 20 μM, after 6 days, hFib media","higher levels of Sox2, Oct3/4 or both"
same,increase of relative Sox2 expression compared to cells treated with DMSO,"[3]; 50 μM or 100 μM, after 6 days, hFib media",~1.6 fold
same,increase in Sox2 expression compared to cells that receive no drug treatment,"[3]; 50 μM, after 6 days, hFib media",4.4 fold
same,Sox2 expression compared to control cells,[3]; [8],slightly increased expression
same,relative Sox2 expression compared to control cells,"[3]; 100 μM, Day 5, hES medium",an increase in relative Sox2 expression
same,relative Sox2 expression compared to cells that do not receive drug treatment,"[3]; 100 μM, Day 8, hES medium",increases in relative Sox2 and Oct4 expression
same,increase in Sox2 expression compared to cells that receive no drug treatment,"[3]; 100 μM, after 6 days, hFib media",4.5 fold
same,increase in Sox2 expression compared to control cells,[3]; [9],~3.5 fold
same,increase in Oct4 compared to cells that receive no agent treatment,[4]; 50 μM,about 5.2 fold
same,increase in relative expression of Oct4 compared to cells treated with DMSO,[4]; 50 μM,~3.5 fold
same,Oct4 expression compared to control cells,[4]; [8],slightly increased expression
same,relative Oct4 expression compared to cells that do not receive drug treatment,"[4]; 100 μM, Day 8, hES medium",increases in relative Sox2 and Oct4 expression
same,increase in Oct4 compared to cells that receive no agent treatment,[4]; 100 μM,~5.7 fold
same,increase in relative expression of Oct4 compared to cells treated with DMSO,[4]; 100 μM,~3.8 fold
same,increase in Oct4 expression compared to control cells,[4]; [9],~4.3 fold
Cc1cccc(-c2nc(C(C)(C)C)[nH]c2-c2ccc3c(c2)OCO3)n1 [616 453],relative Sox2 expression,"[3]; 1 μM, day 7 of treatment",an increase in relative Sox2 expression
same,relative Sox2 expression,"[3]; 50 μM plus 0.5 μM Decitabine, day 7 of treatment",an increase in relative Sox2 expression
same,Sox2 expression compared to cells that receive no treatment,"[3]; 2, 5, 25 or 50 μM, after 6 days",an increase in Sox2 expression
same,relative Sox2 expression compared to cells treated with DMSO,"[3]; 2, 5 and 50 μM, after 6 days",an increase in relative Sox2 expression
Cc1cccc(-c2nn(C(=S)Nc3ccccc3)cc2-c2ccnc3ccccc23)n1 [A-83-01],relative expression of Sox2 compared to control cells,"[3]; 1 or 100 μM, absence of Decitabine, day 7 of treatment",increased relative expression of Sox2
same,relative Sox2 expression compared to control cells,"[3]; 1 or 100 μM, presence of 0.5 μM Decitabine, day 7 of treatment",a slight increase of relative Sox2 expression
Cc1cccc(-c2n[nH]cc2-c2ccc3ncccc3n2)n1 [compound 616452],increase in number of AP positive colonies,[5]; KSO-infected BJ-5Tα fibroblasts,greater than ten fold
same,increase in number of AP positive colonies,[5]; KSOM-infected BJ-5Tα fibroblasts,approximately five fold
same,alkaline phosphatase activity,[6]; four factor (KSOM) reprogramming,increased alkaline phosphatase activity
same,alkaline phosphatase activity,[6]; three factor (KSO) reprogramming,increased alkaline phosphatase activity
B1,enhancement of reprogramming efficiency,"[7]; mouse fibroblasts in the presence of factors Oct4, Sox2 and Klf4",about 20 fold
same,enhancement of reprogramming efficiency,"[7]; mouse fibroblasts with Oct4, Sox2, Klf4 and c-Myc",1.2 fold
